The test system of this test is T1, CtrSTP1.
T1 construct: full CDS in pDR196, expressed in hexose/sucrose transport-deficient yeast strain CSY4000; plasma membrane hexose transporter
Put plainly: […]-glucose uptake in CSY4000 yeast, Eadie-Hofstee. The format is cell-based, Citrus trifoliata. Particulars: pH 5.0; 30 °C; 25 mM sodium phosphate; whole yeast cells; labelled compound; proton-coupled.

Our source for the Km values is paper PMC12697822, “The CtrCBL1/CtrCIPK6 Complex of Citrus Phosphorylates CtrBBX32 to Regulate CtrSTP1‐Mediated Sugar Accumulation and Cold Tolerance” (Advanced Science, 2025).

Consider `OC[C@H]1OC(O)[C@H](O)[C@@H](O)[C@@H]1O` (stereo partly shown) [glucose], for which the Michaelis constant (Km) worked out at 101 ± 23.9 µM.
